Values joined by “and” are separate entries in the source; they are usually repeats but may differ in a detail not shown here. Identical values can stand only once.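 Following 48 hours of exposure in 96-well plates, responses at five concentrations were used to interpolate endpoints linearly. GI50 marks 50% less growth. At the TGI there is no net growth.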
Assays:
Experiment in all cases: inhibition of tumour cell growth, NCI panel, 48 h
[1] = test system: HCT-15 colon
[2] = test system: HOP-92 NSCLC
[3] = test system: MOLT-4 leukemia
[4] = test system: NCI-H23 lung
[5] = test system: SF-295 CNS
[6] = test system: SNB-75 CNS
[7] = test system: TK-10 renal
[8] = test system: UACC-257 melanoma
[9] = test system: UACC-62 melanoma
[10] = test system: HCC-2998 colon

| Compound | GI50 [1] | TGI [1] | GI50 [2] | TGI [2] | GI50 [3] | TGI [3] | GI50 [4] | TGI [4] | GI50 [5] | TGI [5] | GI50 [6] | TGI [6] | GI50 [7] | TGI [7] | GI50 [8] | TGI [8] | GI50 [9] | TGI [9] | TGI [10] | GI50 [10] |
| --- | --- | --- | --- | --- | --- | --- | --- | --- | --- | --- | --- | --- | --- | --- | --- | --- | --- | --- | --- | --- |
| C[C@@H](NC(=O)Cc1cc(F)cc(F)c1)C(=O)N[C@@]1(C)N=C(c2ccccc2)c2ccccc2N(C)C1=O | > 78.1 µM | > 100 µM | 19.8 µM | > 67.7 µM | 11.7 µM | 50.1 µM | 43.4 µM | > 100 µM | 42.8 µM | > 100 µM | > 95.3 µM | > 100 µM | 31.2 µM | > 88.8 µM | 37.5 µM | > 100 µM | 32.4 µM | > 89 µM | – | – |
| O=C(CCCCCCCCCCc1ccccc1)c1c(O)cccc1O | – | 38.7 µM | – | 41.8 µM | – | 61.8 µM | – | 35.9 µM | – | 47 µM | – | 63.8 µM | – | > 100 µM | – | 38.8 µM | – | 36.2 µM | 44.3 µM | – |
| COC(=O)[C@H](Cc1ccccc1)NC(=O)c1csc([C@@H](C[C@H](C(C)C)N(C)C(=O)[C@@H](NC(=O)[C@H]2CCCCN2C)C2CC2)OC(C)=O)n1 | 0.0915 µM | > 25 µM | 0.137 µM | 4.18 µM | 0.0362 µM | > 25 µM | 0.146 µM | > 25 µM | 0.0334 µM | > 25 µM | 0.0257 µM | > 25 µM | 0.473 µM | > 25 µM | > 10.7 µM | > 25 µM | 0.247 µM | > 25 µM | > 25 µM | 0.162 µM |
| CCN(CC)CCC(=O)Nc1ccc(Cn2nnc3c2C(=O)c2nnn(Cc4ccc(NC(=O)CCN(CC)CC)cc4)c2C3=O)cc1 | 26.7 µM | > 100 µM | 0.325 µM | 0.913 µM | 0.242 µM | 0.628 µM | 0.326 µM | 1.22 µM | 1.93 µM | 5.33 µM | 0.314 µM | 0.88 µM | 13.2 µM | 30.8 µM | 1.01 µM | 2.79 µM | 1.08 µM | 2.67 µM | 0.987 µM | 0.316 µM |
| CO[C@H]1C=C[C@]23c4cc5c(cc4CN(CC2O)[C@@H]3C1)OCO5 (stereo partly specified) | – | 24.9 µM | – | 2.74 µM | – | 8.97 µM | – | 33 µM | – | 4.14 µM | – | 30.4 µM | – | > 100 µM | – | 42.8 µM | – | 19.6 µM | 16.7 µM | – |
| COc1ccc2c(c1O)[C@@]13C=C(O)C(=O)C=C1[C@@H](C2)N(C)CC3 | – | > 100 µM | – | > 100 µM | – | > 100 µM | – | > 100 µM | – | > 100 µM | – | > 100 µM | – | > 100 µM | – | > 100 µM | – | > 100 µM | > 100 µM | – |
| CC1Cc2c(N(C)C)ncnc2N(C)c2ccc(Cl)cc21 (stereo unspecified) | 2.83 µM | 85.9 µM | 11 µM | 69.6 µM | 3.52 µM | 27.3 µM | 5.74 µM | > 100 µM | 1.98 µM | 9.85 µM | 2.02 µM | 8.52 µM | 14.8 µM | > 100 µM | – | – | – | – | 37.3 µM | 6.9 µM |
| Cn1c(=O)n(-c2ccc(C(C)(C)C#N)cc2)c2c3cc(-c4cnc5ccccc5c4)ccc3ncc21 | < 0.01 µM and 0.00522 µM | > 100 µM | < 0.01 µM and 0.00431 µM | 0.0622 µM and 0.122 µM and 0.0651 µM | 0.025 µM and 0.00703 µM and 0.0148 µM | – | 0.0169 µM and 0.00838 µM and < 0.0127 µM | 15.9 µM and > 10 µM and > 100 µM | < 0.01 µM and 0.00401 µM | 0.0278 µM and 0.0203 µM and 0.0181 µM | < 0.001 µM | 0.0464 µM and 0.0263 µM | 0.0102 µM and 0.00652 µM and 0.0126 µM | – | < 0.0105 µM and 0.00672 µM and < 0.01 µM | 0.0493 µM and 0.436 µM and 0.0457 µM | 0.0112 µM and 0.00494 µM and < 0.01 µM | 0.0809 µM and 0.0513 µM and 0.0445 µM | > 100 µM | < 0.01 µM and 0.0061 µM |
| O=C1OC(c2ccc(O)cc2)(c2ccc(O)cc2)c2cccc3cccc1c23 | 13.6 µM | 34.3 µM | 12.2 µM | 26.8 µM | 11.7 µM | 33.8 µM | 17.8 µM | 37.2 µM | 15 µM | 31.8 µM | 9.97 µM | 27.1 µM | 18 µM | 34 µM | 13.8 µM | 27.8 µM | 11.3 µM | 25.7 µM | 32.5 µM | 15.8 µM |
| CC[C@@]1(OC(=O)CN)C(=O)OCc2c1cc1n(c2=O)Cc2cc3cc(N)ccc3nc2-1 | 0.153 µM | > 20.3 µM | < 0.01 µM | 0.0705 µM | < 0.01 µM | – | < 0.01 µM | 0.0246 µM | < 0.01 µM | > 100 µM | < 0.017 µM | – | 2.19 µM | > 100 µM | 0.0887 µM | 1.66 µM | < 0.01 µM | 0.0994 µM | – | – |
| CCCC/C(=N\N=C(N)N)c1ccc(F)cc1 | 2.49 µM | 14.2 µM | 2.13 µM | 8.93 µM | 3.35 µM | 24.4 µM | 3.34 µM | 17.1 µM | 2.84 µM | 12.3 µM | 2.36 µM | 12.5 µM | 7.83 µM | 20.8 µM | 4.4 µM | 13.9 µM | 3.14 µM | 14.8 µM | 11 µM | 2.77 µM |
| CC[C@]12C=CCN3CC[C@]4(C(=C(C(=O)OC)C1)Nc1cc(O)ccc14)[C@@H]32 | 14.6 µM | 36.5 µM | 11.6 µM | 26.1 µM | 21.6 µM | 74.2 µM | 16.8 µM | 37.7 µM | 16.7 µM | 33.1 µM | 7.38 µM | 40.2 µM | 30.8 µM | 99.7 µM | 25.8 µM | 85.9 µM | 7.18 µM | 22.3 µM | 29.6 µM | 14.9 µM |
| CC(C)(C)n1cc(-c2ccnc(NCCNS(=O)(=O)c3ccc(Br)cc3)c2)c(-c2cccc(O)c2)n1 | 1.35 µM | 2.93 µM | 1.51 µM | 3.86 µM | – | – | 1.85 µM | 3.97 µM | 1.82 µM | 3.61 µM | 1.36 µM | 3.78 µM | 2.24 µM | 5.93 µM | 1.93 µM | 4.76 µM | 1.57 µM | 3.08 µM | 3.53 µM | 1.84 µM |

Reference: PubChem BioAssay (NCI)
